Tests used:
[1] = biological target: T1, YTHDF1 in HEK293T cells (Homo sapiens, UniProt Q9BYJ9); experiment: Cellular thermal shift assay (CETSA); assay type: cell-based; conditions: 50 μM, 3 h, versus DMSO, listed as Ebselen
T1 construct: endogenous in cells; host or cells: HEK293T
T1 sequence (Q9BYJ9 1-559): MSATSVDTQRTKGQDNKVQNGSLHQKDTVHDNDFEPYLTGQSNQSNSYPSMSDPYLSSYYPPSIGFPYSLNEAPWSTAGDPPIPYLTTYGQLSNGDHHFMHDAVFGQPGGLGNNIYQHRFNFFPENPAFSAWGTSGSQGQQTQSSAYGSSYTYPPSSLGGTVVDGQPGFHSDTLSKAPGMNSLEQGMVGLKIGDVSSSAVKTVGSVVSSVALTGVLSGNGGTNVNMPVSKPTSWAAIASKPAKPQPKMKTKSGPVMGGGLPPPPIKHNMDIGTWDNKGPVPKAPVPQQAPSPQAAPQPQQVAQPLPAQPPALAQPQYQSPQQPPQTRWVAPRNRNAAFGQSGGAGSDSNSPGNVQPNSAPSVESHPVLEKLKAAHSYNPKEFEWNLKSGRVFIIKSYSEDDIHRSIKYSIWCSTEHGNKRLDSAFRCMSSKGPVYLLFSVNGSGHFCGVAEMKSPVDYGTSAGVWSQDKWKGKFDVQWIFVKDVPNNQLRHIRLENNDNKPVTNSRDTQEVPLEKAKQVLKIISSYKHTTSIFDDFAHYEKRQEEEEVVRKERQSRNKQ
Method: HEK293T cells were seeded on 100 mm cell culture plate/s and allowed to adhere overnight. At 80% of confluency, cells were treated with 50 μM ebselen or DMSO as a control and incubated for 3 h at 37 °C in the CO2 incubator. Cells were centrifuged and resuspended in PBS and the protease inhibitor, at a concentration of (0.5–1) × 10^6 cells /100 μL of suspension. Lysates were divided into 9–10 aliquots of 100 μL into 0.2 mL microcentrifuge tubes and incubated at a temperature gradient on a PCR machine for 3 min. After incubation, lysates were frozen and thawed five times in dry ice and at 27 °C for 3 min each. All tubes were then centrifuged at 4 °C for 20 min at 12,000 rpm. Supernatants were then collected and transferred to clean tubes with a loading buffer 5×, heated for 10 min at 95 °C, and detected with Western Blot. The blot was then plotted with a YTHDF1 (Proteintech, 17479-1-AP) and actin (Cell Signaling, 12620S) primary antibody and subsequently with anti-Rabbit HRP (Santa Cruz, sc-2357) and anti-mouse HRP (Thermo Fisher, 61-6520). Chemiluminescent detection was performed using Amersham ECL Prime (GE Healthcare).

[2] = biological target: T2, YTHDF2-bound mRNAs (PEG10, NOTCH2, CREBBP) in PC-3 cells (Homo sapiens, UniProt Q9Y5A9); experiment: Ribonucleoprotein immunoprecipitation (RIP) followed by qRT-PCR; assay type: cell-based; conditions: 25 μM, 24 h, versus DMSO
T2 construct: endogenous in cells; host or cells: PC-3
T2 sequence (Q9Y5A9 1-579): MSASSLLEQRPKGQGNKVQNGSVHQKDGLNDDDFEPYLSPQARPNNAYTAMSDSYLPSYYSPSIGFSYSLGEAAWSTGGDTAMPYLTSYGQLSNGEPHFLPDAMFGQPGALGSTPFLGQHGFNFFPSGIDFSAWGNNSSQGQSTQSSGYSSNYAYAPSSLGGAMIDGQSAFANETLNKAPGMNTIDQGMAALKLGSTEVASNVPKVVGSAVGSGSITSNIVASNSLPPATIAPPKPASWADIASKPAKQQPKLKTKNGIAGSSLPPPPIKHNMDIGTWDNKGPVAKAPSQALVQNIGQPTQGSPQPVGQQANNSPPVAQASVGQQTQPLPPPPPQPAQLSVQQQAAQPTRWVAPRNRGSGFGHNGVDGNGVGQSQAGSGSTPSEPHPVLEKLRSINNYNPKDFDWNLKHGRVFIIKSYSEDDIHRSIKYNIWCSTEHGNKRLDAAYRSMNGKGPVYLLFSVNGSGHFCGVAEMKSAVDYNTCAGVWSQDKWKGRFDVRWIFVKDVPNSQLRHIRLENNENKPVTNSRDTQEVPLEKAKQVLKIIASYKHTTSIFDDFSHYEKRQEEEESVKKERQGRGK
Method: Five million cells were used for each RIP experiment followed by qRT-PCR,[65] without cross-linking steps and using 1–15 μg of the YTHDF2 antibody (Proteintech, 24744-1-AP) or the same amount of the rabbit normal IgG isotype (negative control, Cell Signaling, 2729S). Cells were harvested after 24 h of treatment with 25 μM ebselen and DMSO as the control, lysed with 20 mM Tris–HCl at pH 7.5, 100 mM KCl, 5 mM MgCl2, and 0.5% NP-40 for 10 min on ice, and centrifuged at 15,000g for 10 min at 4 °C. Lysates were then incubated with Dynabead A/G (Thermo Fisher, 10001D/10003D) for pre-clearing for 1 h at 4 °C and then with Dynabeads A/G (80/20 ratio) at RT for 1 h with YTHDF2 or rabbit isotype IgG for Ab coating. After the pre-clearing steps and the coating, lysates were split between YTHDF2 and IgG-coated beads, while 1–5% of the lysate was stored as the input and incubated O/N at 4 °C. Finally, samples were washed with NT2 buffer for five times, 5 min each at 4 °C. […] For each condition, the ΔCt value of IgG and YTHDF2 was evaluated in triplicate. Normalization of the values was then carried out following the percent input method, in which values from IgG and YTHDF2 IP were calculated as % input of the adjusted input values. […] YTHDF2 and IgG fractions were calculated as % input by subtracting to the adjusted input values their ΔCt values. […]

`O=c1c2ccccc2[se]n1-c1ccccc1` [Compound 1, 2-phenyl-1,2-benzisoselenazol-3(2H)-one] was tested, and the “ΔTagg of YTHDF1 (CETSA)” value [1] was 3.48 °C and the “YTHDF2-bound target mRNA levels (RIP, in words)” value [2] was “decrease of the mRNA levels compared to control samples”.
